US20210274784A1, “HERBICIDAL MIXTURES COMPRISING ISOXAFLUTOLE, SAFLUFENACIL AND AN IMIDAZOLINONE HERBICIDE; AND THEIR USE IN SOYBEAN AND COTTON CULTURES” (BASF SE, priority 2018, published 2021)

Tested on: ALOMY (Alopecurus myosuroides, Blackgrass)
Test: post-emergence greenhouse experiment, herbicidal action (scale 0 to 100)
Format: in vivo
Settings: test period 20 days
Excerpt: The culture containers used were plastic flowerpots containing loamy sand with approximately 3.0% of humus as the substrate. The seeds of the test plants were sown separately for each species. For pre-emergence treatment, the active ingredients, which had been suspended or emulsified in water, were applied directly after sowing by means of finely distributing nozzles. The containers were irrigated gently to promote germination and growth and subsequently covered with transparent plastic hoods until the plants had rooted. This cover caused uniform germination of the test plants, unless this had been impaired by the active ingredients. For post-emergence treatment, the test plants were first grown to a height of 3 to 32 cm, depending on the plant habit, and only then treated with the active ingredients which had been suspended or emulsified in water. For this purpose, the test plants were either sown directly and grown in the same containers, or they were first grown separately as seedlings and transplanted into the test containers a few days prior to treatment. Depending on the species, the plants were kept at 10-25° C. or 20-35° C., respectively. The test period extended over 20 days. During this time, the plants were tended, and their response to the individual treatments was evaluated. The evaluation was carried out by using a scale from 0 to 100. […]

`CS(=O)(=O)c1cc(C(F)(F)F)ccc1C(=O)c1cnoc1C1CC1` [Isoxaflutole, isoxaflutole] was tested, and the “Herbicidal action against ALOMY, Found” value (growth stage 11, Isoxaflutole 3.125 g/ha alone) was 0 and the “Herbicidal action against ALOMY, Found” value (growth stage 11, Isoxaflutole 6.25 g/ha alone) was 0.
